Structures can show the parent of a compound that is named as a salt.
Test: Thermal stability at 110° C. in an open flask (HPLC purity)
Type: physicochemical
Description: The thermal stability of the delta form at 110° C. in an open flask was compared to that of forms from the prior art.

[1] = 76 hours at 110° C., open flask
[2] = t = 0, before heating (baseline of the thermal stability test)

SMILES | HPLC purity (%) [1] [%] | HPLC purity (%) [2] [%] | Thermal stability compared to the other known forms (110° C., open flask)
CCC[C@H](N[C@@H](C)C(=O)N1[C@H](C(=O)O)C[C@@H]2CCCC[C@@H]21)C(=O)OCC.N=C(N)NCCC[C@H](N)C(=O)O [Form obtained according to the process of SI 23001] | 86.9 | 99.1 | 
CCC[C@H](N[C@@H](C)C(=O)N1[C@H](C(=O)O)C[C@@H]2CCCC[C@@H]21)C(=O)OCC [perindopril L-arginine salt] | 99.5 | 99.7 | improved thermal stability
CCC[C@H](N[C@@H](C)C(=O)N1[C@H](C(=O)O)C[C@@H]2CCCC[C@@H]21)C(=O)OCC.N=C(N)NCCC[C@H](N)C(=O)O [α form according to EP 1 989 182] | 98.8 | 99.8 | 
CCC[C@H](N[C@@H](C)C(=O)N1[C@H](C(=O)O)C[C@@H]2CCCC[C@@H]21)C(=O)OCC.N=C(N)NCCC[C@H](N)C(=O)O [β form according to EP 2 016 051] | 98.3 | 99.6 | 
CCC[C@H](N[C@@H](C)C(=O)N1[C@H](C(=O)O)C[C@@H]2CCCC[C@@H]21)C(=O)OCC.N=C(N)NCCC[C@H](N)C(=O)O [γ form according to WO 2009/157018] | 93.4 | 99.7 | 

— patent US8835652B2, “Delta crystalline form of the arginine salt of perindopril, a process for its preparation, and pharmaceutical compositions containing it” (Les Laboratoires Servier, priority 2012, dated 2014)
